The values below are quoted from earlier work in US20080008798A1, “Salts of astaxathin esters” (priority 2002, published 2008).

The conditions of data set [1]: per week; storage of the manufactured feed under ambient conditions.
Data set [2] relates to flesh pigmentation. Conditions: feeding non-formulated astaxanthin.

For `CC1=C(/C=C/C(C)=C/C=C/C(C)=C/C=C/C=C(C)/C=C/C=C(C)/C=C/C2=C(C)C(=O)[C@@H](O)CC2(C)C)C(C)(C)C[C@H](O)C1=O` [astaxanthin], the “contained pigment lost through degradation during storage” value in data set [1] is given as “about 2%”. For the same compound, the pigmentation effect result in data set [2] is on record as “almost no pigmentation effect”.
